Values quoted from earlier work as cited in patent US12527813B2, “Methods to stabilize and reverse atherosclerotic lesions by sulfated polysaccharides” (Calroy Health Sciences, LLC, priority 2017, dated 2026).

Test system: lipid-rich necrotic core
Details: 24 months

## CC(C)c1nc(N(C)S(C)(=O)=O)nc(-c2ccc(F)cc2)c1/C=C/[C@@H](O)C[C@@H](O)CC(=O)O [rosuvastation]
5 mg/day
  lipid-rich necrotic core reduced, low dose: 27%
  lumen size and artery stenosis change: virtually no change
33 patients, low or high dose
  lipid-rich necrotic core reduced, all patients: about 25%
40/80 mg/day
  lipid-rich necrotic core reduced, high dose: 19%
